The record followed here is patent US12539292B2, “BRM targeting compounds and associated methods of use” (Arvinas Operations, Inc., priority 2018, dated 2026).

Like-named read-outs stand apart in the source and are kept apart here. Where only a bound is given, the exact number is not on record here.

The target in this experiment is T1, BRM (Homo sapiens, UniProt P51531).
T1 construct: In-Cell Western Screen of BRM Degradation in SW1573 Cells; endogenous in cells; host or cells: SW1573
Kind of experiment: In-cell Western screen of BRM degradation in SW1573 cells (Dmax and DC50). The format is cell-based. The method in brief: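 BRM levels were read by LI-COR in-cell Western after two-channel (800/680 nm) immunostaining of fixed, Triton-permeabilised SW1573 cells.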

The mark [1] stands for this setting: BRM degradation, SW1573 cells, read-out: DC50.
Where [2] appears, read: BRM degradation, SW1573 cells, when tested at the top concentration of between 0.3 and 10 μM, read-out: Dmax (%) (% degraded).
Where [3] appears, read: SW1573, % degraded, when tested at the top concentration of between 0.3 and 10 μM, read-out: BRM Dmax (%).
Setting [4] is: BRM degradation, read-out: BRM DC50.

T1 sequence (P51531 whole entry): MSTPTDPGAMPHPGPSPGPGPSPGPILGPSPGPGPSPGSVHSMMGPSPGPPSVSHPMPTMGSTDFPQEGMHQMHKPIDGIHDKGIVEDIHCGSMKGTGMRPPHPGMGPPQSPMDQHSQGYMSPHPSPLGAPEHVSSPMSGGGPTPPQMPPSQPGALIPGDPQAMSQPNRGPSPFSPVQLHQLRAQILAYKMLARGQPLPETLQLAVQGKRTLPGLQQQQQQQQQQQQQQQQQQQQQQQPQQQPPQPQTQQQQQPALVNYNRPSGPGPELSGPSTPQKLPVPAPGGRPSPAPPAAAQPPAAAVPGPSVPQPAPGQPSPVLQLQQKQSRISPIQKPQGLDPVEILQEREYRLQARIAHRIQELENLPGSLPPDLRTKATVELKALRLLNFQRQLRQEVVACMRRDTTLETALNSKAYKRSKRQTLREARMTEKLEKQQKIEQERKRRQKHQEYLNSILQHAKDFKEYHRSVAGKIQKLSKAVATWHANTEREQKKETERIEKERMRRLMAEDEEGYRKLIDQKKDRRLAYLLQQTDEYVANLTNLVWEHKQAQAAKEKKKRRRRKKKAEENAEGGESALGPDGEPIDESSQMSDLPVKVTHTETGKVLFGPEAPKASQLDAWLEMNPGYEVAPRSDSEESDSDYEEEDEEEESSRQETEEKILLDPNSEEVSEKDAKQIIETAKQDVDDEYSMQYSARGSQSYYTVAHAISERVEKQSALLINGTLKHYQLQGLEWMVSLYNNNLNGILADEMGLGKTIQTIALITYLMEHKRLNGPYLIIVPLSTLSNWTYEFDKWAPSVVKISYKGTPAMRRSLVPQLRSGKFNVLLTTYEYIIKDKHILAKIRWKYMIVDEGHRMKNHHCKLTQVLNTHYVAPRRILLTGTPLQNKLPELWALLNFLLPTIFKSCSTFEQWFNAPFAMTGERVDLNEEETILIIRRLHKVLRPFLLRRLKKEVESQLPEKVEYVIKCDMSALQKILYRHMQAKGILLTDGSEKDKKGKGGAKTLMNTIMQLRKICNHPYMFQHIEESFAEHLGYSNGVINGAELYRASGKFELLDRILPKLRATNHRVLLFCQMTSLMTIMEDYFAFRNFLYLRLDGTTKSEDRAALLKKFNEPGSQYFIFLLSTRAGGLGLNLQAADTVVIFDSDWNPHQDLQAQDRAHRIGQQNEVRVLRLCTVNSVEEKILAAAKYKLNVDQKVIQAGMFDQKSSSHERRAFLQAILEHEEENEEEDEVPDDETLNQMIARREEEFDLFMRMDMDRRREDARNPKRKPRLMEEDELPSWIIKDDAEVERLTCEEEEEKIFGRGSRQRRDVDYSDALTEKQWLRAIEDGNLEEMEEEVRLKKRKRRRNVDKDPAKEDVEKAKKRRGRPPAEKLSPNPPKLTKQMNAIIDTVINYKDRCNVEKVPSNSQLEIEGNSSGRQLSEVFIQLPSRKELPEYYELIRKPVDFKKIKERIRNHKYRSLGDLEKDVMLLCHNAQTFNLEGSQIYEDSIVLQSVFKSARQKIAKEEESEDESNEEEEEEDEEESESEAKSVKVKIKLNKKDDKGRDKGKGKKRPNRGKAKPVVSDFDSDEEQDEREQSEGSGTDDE

For the compound `Cc1ncsc1-c1ccc(CNC(=O)[C@@H]2C[C@@H](O)CN2C(=O)[C@H](c2cc(OCCOCCOCCOc3cc(N4C5CCC4CN(c4cc(-c6ccccc6O)nnc4N)C5)ccn3)no2)C(C)C)cc1` [compound 27, (2S,4R)-1-[(2S)-2-[3-[2-(2-[2-[(4-[3-[3-amino-6-(2-hydroxyphenyl)pyridazin-4-yl]-3,8-diazabicyclo[3.2.1]octan-8-yl]pyridin-2-yl)oxy]ethoxy]ethoxy)ethoxy]-1,2-oxazol-5-yl]-3-methylbutanoyl]-4-hydroxy-N-[[4-(4-methyl-1,3-thiazol-5-yl)phenyl]methyl]pyrrolidine-2-carboxamide], under setting [1], the 50% degradation concentration (DC50) was greater than 30 nM. The Dmax under setting [2] is greater than 75%.
On to `Cc1ncsc1-c1cnc([C@@H](C)NC(=O)[C@@H]2C[C@@H](O)CN2C(=O)[C@@H](c2cc(OCCN3CCC(O[C@H]4C[C@H](Oc5cc(N6C7CCC6CN(c6cc(-c8ccccc8O)nnc6N)C7)ccn5)C4)CC3)no2)C(C)C)cn1` [compound 441, (2S,4R)-1-((2R)-2-(3-(2-(4-((1r,3R)-3-((4-(3-(3-amino-6-(2-hydroxyphenyl)pyridazin-4-yl)-3,8-diazabicyclo[3.2.1]octan-8-yl)pyridin-2-yl)oxy)cyclobutoxy)piperidin-1-yl)ethoxy)isoxazol-5-yl)-3-methylbutanoyl)-4-hydroxy-N-((R)-1-(5-(4-methylthiazol-5-yl)pyrazin-2-yl)ethyl)pyrrolidine-2-carboxamide], for which the Dmax under setting [3] was greater than 75%. The DC50 (degradation of BRM, read-out: BRM DC50) lay within 2.5 to 10 nM.
For the compound `CC(=O)NCC#Cc1ncsc1-c1ccc([C@H](C)NC(=O)[C@@H]2C[C@@H](O)CN2C(=O)C(c2cc(OCCN3CCN(CCOc4cc(N5C6CCC5CN(c5cc(-c7ccccc7O)nnc5N)C6)ccn4)CC3)no2)C(C)C)cc1` (stereo partly drawn) [compound 175, (2S,4R)-N-((S)-1-(4-(4-(3-acetamidoprop-1-yn-1-yl)thiazol-5-yl)phenyl)ethyl)-1-(2-(3-(2-(4-(2-((4-(3-(3-amino-6-(2-hydroxyphenyl)pyridazin-4-yl)-3,8-diazabicyclo[3.2.1]octan-8-yl)pyridin-2-yl)oxy)ethyl)piperazin-1-yl)ethoxy)isoxazol-5-yl)-3-methylbutanoyl)-4-hydroxypyrrolidine-2-carboxamide], under setting [1], the DC50 was in the range of 2.5 to 10 nM. Further, the Dmax (BRM degradation, SW1573 cells, tested at the top concentration of between 0.3 and 10 μM, read-out: Dmax (%) (% degraded)) is greater than 75%.
As to `Cc1ncsc1-c1ncc([C@@H](C)NC(=O)[C@@H]2C[C@@H](O)CN2C(=O)C(c2cc(OCCN3CCC(O[C@H]4C[C@H](Oc5cc(N6C7CCC6CN(c6cc(-c8ccccc8O)nnc6N)C7)ccn5)C4)CC3)no2)C(C)C)cc1F` (stereo partly drawn) [compound 501, (2S,4R)-1-(2-(3-(2-(4-((1r,3r)-3-((4-(3-(3-amino-6-(2-hydroxyphenyl)pyridazin-4-yl)-3,8-diazabicyclo[3.2.1]octan-8-yl)pyridin-2-yl)oxy)cyclobutoxy)piperidin-1-yl)ethoxy)isoxazol-5-yl)-3-methylbutanoyl)-N-((R)-1-(5-fluoro-6-(4-methylthiazol-5-yl)pyridin-3-yl)ethyl)-4-hydroxypyrrolidine-2-carboxamide], the DC50 under setting [4] is less than 2.5 nM. The Dmax under setting [3] is greater than 75%.
As to `Cc1ncsc1-c1ccc([C@H](C)NC(=O)[C@@H]2C[C@@H](O)CN2C(=O)[C@@H](NC(=O)CN2CCC(OC3CC(Oc4cc(N5C6CC[C@@H]5CN(c5cc(-c7ccccc7O)nnc5N)C6)ccn4)C3)CC2)C(C)(C)C)cc1` (stereo partly drawn) [compound 520, (2S,4R)-1-((2S)-2-(2-(4-((1r,3S)-3-((4-(3-(3-amino-6-(2-hydroxyphenyl)pyridazin-4-yl)-3,8-diazabicyclo[3.2.1]octan-8-yl)pyridin-2-yl)oxy)cyclobutoxy)pipcridin-1-yl)acetamido)-3,3-dimethylbutanoyl)-4-hydroxy-N-((S)-1-(4-(4-methylthiazol-5-yl)phenyl)ethyl)pyrrolidine-2-carboxamide], the “BRM Dmax (%)” value (% degraded, when tested at the top concentration of between 0.3 and 10 μM) was “A (A > 75)”. The DC50 under setting [4] was less than 2.5 nM.
As for `Cc1ncsc1-c1ccc(CNC(=O)[C@@H]2C[C@@H](O)CN2C(=O)[C@@H](NC(=O)COCCCc2ccc(C(C)n3cc(-c4cc(-c5ccccc5O)nnc4N)cn3)cc2)C(C)(C)C)cc1` (stereo partly drawn) [compound 33, (2S,4R)-1-[(2S)-2-(2-[3-[4-(1-[4-[3-amino-6-(2-hydroxyphenyl)pyridazin-4-yl]-1H-pyrazol-1-yl]ethyl)phenyl]propoxy]acetamido)-3,3-dimethylbutanoyl]-4-hydroxy-N-[[4-(4-methyl-1,3-thiazol-5-yl)phenyl]methyl]pyrrolidine-2-carboxamide], the DC50 under setting [1] lay in the range of 2.5 to 10 nM. Further, under setting [2], the Dmax was greater than 75%.
On to `Cc1ncsc1-c1ccc([C@H](C)NC(=O)[C@@H]2C[C@@H](O)CN2C(=O)[C@@H](c2cc(N3CCC(F)(CN4CCC(O[C@H]5C[C@H](Oc6cc(N7C8CCC7CN(c7cc(-c9ccccc9O)nnc7N)C8)ccn6)C5)CC4)CC3)no2)C(C)C)cc1` [compound 683, (2S,4R)-1-((2R)-2-(3-(4-((4-((1r,3r)-3-((4-(3-(3-amino-6-(2-hydroxyphenyl)pyridazin-4-yl)-3,8-diazabicyclo[3.2.1]octan-8-yl)pyridin-2-yl)oxy)cyclobutoxy)piperidin-1-yl)methyl)-4-fluoropiperidin-1-yl)isoxazol-5-yl)-3-methylbutanoyl)-4-hydroxy-N-((S)-1-(4-(4-methylthiazol-5-yl)phenyl)ethyl)pyrrolidine-2-carboxamide], for which the DC50 under setting [1] was less than 2.5 nM. Further, the Dmax (BRM degradation, SW1573 cells, read-out: Dmax (% degraded)) was greater than 75%.
In the case of `COCc1ncsc1-c1ccc([C@H](C)NC(=O)[C@@H]2C[C@@H](O)CN2C(=O)[C@H](c2cc(OCCN3CCC(O[C@H]4C[C@H](Oc5cc(N6C7CCC6CN(c6cc(-c8ccccc8O)nnc6N)C7)ccn5)C4)CC3)no2)C(C)C)cc1` [compound 184, (2S,4R)-1-((2S)-2-(3-(2-(4-((1r,3S)-3-((4-(3-(3-amino-6-(2-hydroxyphenyl)pyridazin-4-yl)-3,8-diazabicyclo[3.2.1]octan-8-yl)pyridin-2-yl)oxy)cyclobutoxy)piperidin-1-yl)ethoxy)isoxazol-5-yl)-3-methylbutanoyl)-4-hydroxy-N-((S)-1-(4-(4-(methoxymethyl)thiazol-5-yl)phenyl)ethyl)pyrrolidine-2-carboxamide], under setting [1], the DC50 is greater than 30 nM.

As a reminder, the DC50 is the concentration at which degradation of the target reaches its halfway point. By Dmax is commonly meant the greatest extent of degradation seen.
